#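 Values below derive from 48-hour exposures of cells grown in 96-well plates, with endpoints linearly interpolated between the two concentrations bracketing the appropriate inhibition level. At the GI50, growth is halved. TGI is the concentration that stops growth completely.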
# Experiments:
# Assay in all cases: NCI-60 cell line screen, 48 h
# [1] = tested on: 786-0 renal
# [2] = tested on: A498 renal
# [3] = tested on: A549 NSCLC
# [4] = tested on: ACHN renal
# [5] = tested on: BT-549 breast
# [6] = tested on: CAKI-1 renal
# [7] = tested on: CCRF-CEM leukemia
# [8] = tested on: COLO 205 colon
# [9] = tested on: DU-145 prostate
# [10] = tested on: EKVX NSCLC
# [11] = tested on: HCC-2998 colon
# [12] = tested on: HCT-116 colon
# [13] = tested on: HCT-15 colon
# [14] = tested on: HL-60(TB) leukemia
# [15] = tested on: HOP-62 NSCLC
# [16] = tested on: HOP-92 NSCLC
# [17] = tested on: HS 578T breast
# [18] = tested on: HT29 colon
# [19] = tested on: IGROV1 ovarian
# [20] = tested on: K-562 leukemia
# [21] = tested on: KM12 colon
# [22] = tested on: LOX IMVI melanoma
# [23] = tested on: M14 melanoma
# [24] = tested on: MALME-3M melanoma
# [25] = tested on: MCF7 breast
# [26] = tested on: MDA-MB-231 breast
# [27] = tested on: MDA-MB-435
# [28] = tested on: MOLT-4 leukemia
# [29] = tested on: NCI-H226 lung
# [30] = tested on: NCI-H23 lung
# [31] = tested on: NCI-H460 lung
# [32] = tested on: NCI-H522 lung
# [33] = tested on: NCI/ADR-RES ovarian
# [34] = tested on: OVCAR-3 ovarian
# [35] = tested on: OVCAR-4 ovarian
# [36] = tested on: OVCAR-5 ovarian
# [37] = tested on: OVCAR-8 ovarian
# [38] = tested on: PC-3 prostate
# [39] = tested on: RPMI-8226 leukemia
# [40] = tested on: RXF 393 renal
# [41] = tested on: SF-268 CNS
# [42] = tested on: SF-295 CNS
# [43] = tested on: SF-539 CNS
# [44] = tested on: SK-MEL-2 melanoma
# [45] = tested on: SK-MEL-28 melanoma
# [46] = tested on: SK-MEL-5 melanoma
# [47] = tested on: SK-OV-3 ovarian
# [48] = tested on: SN12C renal
# [49] = tested on: SNB-19 CNS
# [50] = tested on: SNB-75 CNS
# [51] = tested on: SR leukemia
# [52] = tested on: SW-620 colon
# [53] = tested on: T-47D breast
# [54] = tested on: TK-10 renal
# [55] = tested on: U251 CNS
# [56] = tested on: UACC-257 melanoma
# [57] = tested on: UACC-62 melanoma
# [58] = tested on: UO-31 renal
# [59] = tested on: MDA-N
structure (smiles),measurement,setting,value
Cc1nc2sc(C(=O)Nc3cccc(Br)c3)c(N)c2cc1C(O)c1ccccc1 (configuration not stated),GI50,[1],1.6 µM
same,TGI,[1],18.4 µM
same,GI50,[2],0.219 µM
same,TGI,[2],0.746 µM
same,GI50,[3],0.9 µM
same,TGI,[3],> 71.3 µM
same,GI50,[4],0.768 µM
same,TGI,[4],14.7 µM
same,GI50,[5],1.75 µM
same,TGI,[5],19.9 µM
same,GI50,[6],0.632 µM
same,TGI,[6],15.6 µM
same,GI50,[7],0.413 µM
same,TGI,[7],> 43.2 µM
same,GI50,[8],3.61 µM
same,TGI,[8],20.2 µM
same,GI50,[9],0.672 µM
same,TGI,[9],13.9 µM
same,GI50,[10],1.2 µM
same,TGI,[10],21 µM
same,GI50,[11],2.4 µM
same,TGI,[11],12.1 µM
same,GI50,[12],0.438 µM
same,TGI,[12],16.2 µM
same,GI50,[13],0.403 µM
same,TGI,[13],17.3 µM
same,GI50,[14],0.395 µM
same,TGI,[14],1.6 µM
same,GI50,[15],1.57 µM
same,TGI,[15],32.4 µM
same,GI50,[16],4.27 µM
same,TGI,[16],32.4 µM
same,GI50,[17],0.424 µM
same,TGI,[17],9.21 µM
same,GI50,[18],0.393 µM
same,TGI,[18],> 82.5 µM
same,GI50,[19],1.94 µM
same,TGI,[19],16.6 µM
same,GI50,[20],0.364 µM
same,TGI,[20],> 42.7 µM
same,GI50,[21],0.689 µM
same,TGI,[21],12.6 µM
same,GI50,[22],0.731 µM
same,TGI,[22],22.9 µM
same,GI50,[23],0.466 µM
same,TGI,[23],29.7 µM
same,GI50,[24],0.761 µM
same,TGI,[24],22.3 µM
same,GI50,[25],0.372 µM
same,TGI,[25],17 µM
same,GI50,[26],1.85 µM
same,TGI,[26],16.4 µM
same,GI50,[27],0.199 µM
same,TGI,[27],0.449 µM
same,GI50,[28],0.58 µM
same,TGI,[28],> 100 µM
same,GI50,[29],2 µM
same,TGI,[29],24.3 µM
same,GI50,[30],1.13 µM
same,TGI,[30],17.9 µM
same,GI50,[31],0.391 µM
same,TGI,[31],4.74 µM
same,GI50,[32],0.726 µM
same,TGI,[32],> 28.4 µM
same,GI50,[33],0.619 µM
same,TGI,[33],8.47 µM
same,GI50,[34],0.392 µM
same,TGI,[34],6.23 µM
same,GI50,[35],1.31 µM
same,TGI,[35],20.4 µM
same,GI50,[36],3.09 µM
same,TGI,[36],20.1 µM
same,GI50,[37],1.42 µM
same,TGI,[37],55.1 µM
same,GI50,[38],2.89 µM
same,TGI,[38],31 µM
same,GI50,[39],0.511 µM
same,TGI,[39],> 23.1 µM
same,GI50,[40],0.483 µM
same,TGI,[40],10.9 µM
same,GI50,[41],1.81 µM
same,TGI,[41],20.2 µM
same,GI50,[42],0.765 µM
same,TGI,[42],12.1 µM
same,GI50,[43],0.558 µM
same,TGI,[43],5.4 µM
same,GI50,[44],1.77 µM
same,TGI,[44],26.4 µM
same,GI50,[45],4.61 µM
same,TGI,[45],23.7 µM
same,GI50,[46],0.552 µM
same,TGI,[46],1.96 µM
same,GI50,[47],1.76 µM
same,TGI,[47],19.1 µM
same,GI50,[48],0.894 µM
same,TGI,[48],13.3 µM
same,GI50,[49],1.48 µM
same,TGI,[49],18.9 µM
same,GI50,[50],0.224 µM
same,TGI,[50],4.15 µM
same,GI50,[51],0.301 µM
same,TGI,[51],> 37.3 µM
same,GI50,[52],0.375 µM
same,TGI,[52],> 38 µM
same,GI50,[53],0.665 µM
same,TGI,[53],31 µM
same,GI50,[54],2.22 µM
same,TGI,[54],26.7 µM
same,GI50,[55],0.52 µM
same,TGI,[55],> 70.9 µM
same,GI50,[56],0.847 µM
same,TGI,[56],25.2 µM
same,GI50,[57],0.622 µM
same,TGI,[57],16.4 µM
same,GI50,[58],1.82 µM
same,TGI,[58],16.5 µM
CCC1=[N+]([O-])C(C)(C)NC1(C)C,TGI,[3],> 10 µM
same,TGI,[4],> 10 µM
same,TGI,[6],> 10 µM
same,TGI,[8],> 10 µM
same,TGI,[9],> 10 µM
same,TGI,[10],> 10 µM
same,TGI,[12],> 10 µM
same,TGI,[13],> 10 µM
same,TGI,[16],> 10 µM
same,TGI,[18],> 10 µM
same,TGI,[19],> 10 µM
same,TGI,[21],> 10 µM
same,TGI,[23],> 10 µM
same,TGI,[26],> 10 µM
same,TGI,[27],> 10 µM
same,TGI,[59],> 10 µM
same,TGI,[29],> 10 µM
same,TGI,[30],> 10 µM
same,TGI,[33],> 10 µM
same,TGI,[34],> 10 µM
same,TGI,[35],> 10 µM
same,TGI,[36],> 10 µM
same,TGI,[37],> 10 µM
same,TGI,[38],> 10 µM
same,TGI,[40],> 10 µM
same,TGI,[41],> 10 µM
same,TGI,[42],> 10 µM
same,TGI,[43],> 10 µM
same,TGI,[45],> 10 µM
same,TGI,[46],> 10 µM
same,TGI,[48],> 10 µM
same,TGI,[49],> 10 µM
same,TGI,[50],> 10 µM
same,TGI,[52],> 10 µM
same,TGI,[54],> 10 µM
same,TGI,[55],> 10 µM
